Where two headings read alike, the source gives them in different places. Peptide text beside a SMILES is read from it.
Description: All subjects who met eligibility criteria were confined to the clinical research unit from […] through Day 3. At admission, physical examination, vital signs, 12 lead ECG and weight were obtained, medical and medication history were updated if necessary, safety blood tests (hematology and chemistry), urinalysis, urine drug screen and an alcohol breath test were repeated and a urine pregnancy test was done for women of childbearing potential.
At each dose level, there were 2 sentinel subjects, (1 active, 1 placebo), who were dosed at least 48 hours in advance of the other subjects in their respective group. Following review of safety data, including physical examination, vital signs, and review of adverse events from the first 2 subjects, enrolment in the cohort continued.
A 12-lead ECG was performed on Day 1, within 60 minutes of infusion start (in triplicate), mid-way through the infusion, at the completion of the infusion, 30 minutes after completion of the infusion and at various timepoints following the end of the infusion.
Vital signs were recorded within 60 minutes pre-dose, at the mid-point of the infusion and post dose vitals were assessed at completion of the infusion, 0.5, 1, 2, 3, 4, 6, 9, 12, 24 and 48 hours post dose, after at least 3 minutes of rest in supine position.
Subjects returned to the study center 7 days after dosing, for the termination visit. A full physical examination, vital signs and weight were obtained, concomitant medications were updated if necessary, safety blood specimens (haematology and chemistry, PT and aPTT) and urine were collected for urinalysis and urine drug screening. A serum pregnancy test was done for women of childbearing potential and a 12-lead ECG was performed.
In this study dose limiting toxicity (DLT) was defined as any drug related ≥Grade 3 AEs occurring despite optimal therapeutic interventions (which included but were not limited to allergic/hypersensitivity reactions, dermatological reactions/infusion site reactions, haematological toxicities such as neutropenia, thrombocytopenia and anaemia and clinical chemistry abnormalities) experienced up to Day 7 (Termination Visit).
(§1) All subjects who received any amount of study drug were included in the safety analysis (Safety population).
The study was a double blinded, randomized, placebo-controlled study. The placebo administered was 0.9% sodium chloride.
On Day 1 (day of dosing), subjects were randomly assigned either peptide IV or Placebo IV. At each dose level, there were 2 sentinel subjects, (1 active, 1 placebo), who were dosed at least 48 hours in advance of the other subjects in their respective group. Following review of safety data, including physical examination, vital signs, and review of adverse events from the first 2 subjects, enrolment in the cohort continued. All subjects who met eligibility criteria were confined to the clinical research unit from Day −2 through Day 3. At admission, physical examination, vital signs, 12 lead ECG and weight were obtained, medical and medication history were updated if necessary, safety blood tests (hematology and chemistry), urinalysis, urine drug screen and an alcohol breath test were repeated and a urine pregnancy test was done for women of childbearing potential.
as §1

[1] = Cohort 1: 0.05 mg/kg IV 1-hr infusion (N = 6)
[2] = Cohort 1: 0.05 mg/kg IV 1 hour infusion, subject 001-S008
[3] = Cohort 4 0.05 mg/kg IV 2-hr infusion, participant 001-S086

CC(C)[C@H](NC(=O)[C@H](Cc1c[nH]c2ccccc12)NC(=O)[C@H](CCCNC(=N)N)NC(=O)[C@H](CCCNC(=N)N)NC(=O)[C@@H](NC(=O)[C@@H](NC(=O)[C@H](CCCNC(=N)N)NC(=O)[C@@H](NC(=O)[C@@H](NC(=O)[C@H](CCCNC(=N)N)NC(=O)[C@H](CCCNC(=N)N)NC(=O)[C@H](Cc1c[nH]c2ccccc12)NC(=O)[C@@H](NC(=O)[C@H](CCCNC(=N)N)NC(=O)[C@H](CCCNC(=N)N)NC(=O)[C@@H](NC(=O)[C@H](CCCNC(=N)N)NC(=O)[C@H](CCCNC(=N)N)NC(=O)[C@@H](NC(=O)[C@H](Cc1c[nH]c2ccccc12)NC(=O)[C@H](CCCNC(=N)N)NC(=O)[C@@H](N)CCCNC(=N)N)C(C)C)C(C)C)C(C)C)C(C)C)C(C)C)C(C)C)C(C)C)C(=O)N[C@@H](CCCNC(=N)N)C(=O)N[C@@H](CCCNC(=N)N)C(N)=O [SEQ ID NO: 1] (H-RRWVRRVRRVWRRVVRVVRRWVRR-NH2)
Grade 1: Infusion related reaction: Severity Grade [2] | Severity of event: Localized IRR at right arm and shoulder ache [3] | Severity of event: Myalgia [3]
4: IRRs, events (Cohort 4, 0.5 mg/kg over 2 hours in 250 mL, all Grade 1, no study drug interruption)
1: Participants With At Least 1 Treatment-Related TEAE, occurrences m [1] | TEAE by system organ class: Gastrointestinal Disorders, occurrences m [1] | TEAE by system organ class: General Disorders and Administration Site Conditions, occurrences m [1] | Treatment-related TEAE: General Disorders and Administration Site Conditions, occurrences m [1] | Treatment-related TEAE: Vessel puncture site erythema, occurrences m [1]
2 (33.3%): TEAE by system organ class: Nervous System Disorders, participants n (%) [1]
Day 1/6 hours: Infusion related reaction: End Date/Time [2]
7: Participants With At Least 1 TEAE, occurrences m [1] | TEAE Severity Grade 1, m [1] | TEAE severity Grade 1, occurrences m [1]
3 (30.0%): TEAE by system organ class: Injury, Poisoning, and Procedural Complications, participants n (%) [1]
0: TEAE Severity Grade 2, n (%) [1] | TEAE by system organ class: Blood and Lymphatic System Disorders, participants n (%) [1] | TEAE by system organ class: Infections and Infestations, participants n (%) [1] | TEAE by system organ class: Musculoskeletal and Connective Tissue Disorders, participants n (%) [1] | TEAE by system organ class: Respiratory, Thoracic, and Mediastinal disorders, participants n (%) [1] | TEAE by system organ class: Skin and Subcutaneous Tissue Disorders, participants n (%) [1] | TEAE by system organ class: Vascular Disorders, participants n (%) [1] | TEAE severity Grade 2, participants n (%) [1] | TEAE severity Grade 3, participants n (%) [1] | TEAE severity Grade 4, participants n (%) [1] | TEAE severity Grade 5, participants n (%) [1] | Treatment-related TEAE: Abdominal distension, participants n (%) [1] | Treatment-related TEAE: Blood and Lymphatic System Disorders, participants n (%) [1] | Treatment-related TEAE: Constipation, participants n (%) [1] | Treatment-related TEAE: Diarrhea, participants n (%) [1] | Treatment-related TEAE: Dizziness, participants n (%) [1] | Treatment-related TEAE: Feeling hot, participants n (%) [1] | Treatment-related TEAE: Gastrointestinal Disorders, participants n (%) [1] | Treatment-related TEAE: Headache, participants n (%) [1] | Treatment-related TEAE: Infusion related reaction, participants n (%) [1] | Treatment-related TEAE: Infusion site discomfort, participants n (%) [1] | Treatment-related TEAE: Infusion site pain, participants n (%) [1] | Treatment-related TEAE: Infusion site reaction, participants n (%) [1] | Treatment-related TEAE: Infusion site swelling, participants n (%) [1] | Treatment-related TEAE: Injury, Poisoning, and Procedural Complications, participants n (%) [1] | Treatment-related TEAE: Macule, participants n (%) [1] | Treatment-related TEAE: Musculoskeletal and Connective Tissue Disorders, participants n (%) [1] | Treatment-related TEAE: Myalgia, participants n (%) [1] | Treatment-related TEAE: Nervous system disorders, participants n (%) [1] | Treatment-related TEAE: Oropharyngeal pain, participants n (%) [1] | Treatment-related TEAE: Orthostatic hypotension, participants n (%) [1] | Treatment-related TEAE: Phlebitis, participants n (%) [1] | Treatment-related TEAE: Respiratory, Thoracic, and Mediastinal disorders, participants n (%) [1] | Treatment-related TEAE: Skin and Subcutaneous Tissue Disorders, participants n (%) [1] | Treatment-related TEAE: Thrombocytopenia, participants n (%) [1] | Treatment-related TEAE: Vascular Disorders, participants n (%) [1] | Treatment-related TEAE: Vessel puncture site pain, participants n (%) [1] | Treatment-related TEAE: Vomiting, participants n (%) [1] | Number of Participants Reporting at least: One Dose-Limiting Toxicity, n (%) (Cohort 2: […] IV 1-hr infusion (N = 6)) | Number of Participants Reporting at least: One Dose-Limiting Toxicity, n (%) (Cohort 3: […] IV 1-hr infusion (N = 5)) | Number of Participants Reporting at least: One Dose-Limiting Toxicity, n (%) (Cohort 3b: […] IV 2-hr infusion (N = 6)) | Number of Participants Reporting at least: Onc TEAE Leading to Study Withdrawal, n (%) (Cohort 4: 0.5 mg/kg IV 2-hr infusion (N = 6))
2: TEAE by system organ class: Nervous System Disorders, occurrences m [1]
1 (16.7%): Participants With At Least 1 Treatment-Related TEAE, n (%) [1] | TEAE by system organ class: Gastrointestinal Disorders, participants n (%) [1] | TEAE by system organ class: General Disorders and Administration Site Conditions, participants n (%) [1] | Treatment-related TEAE: General Disorders and Administration Site Conditions, participants n (%) [1] | Treatment-related TEAE: Vessel puncture site erythema, participants n (%) [1]
3: TEAE by system organ class: Injury, Poisoning, and Procedural Complications, occurrences m [1] | participants with IRRs (Cohort 4, 0.5 mg/kg over 2 hours in 250 mL)
5 (83.3%): TEAE Severity Grade 1, n (%) [1] | TEAE severity Grade 1, participants n (%) [1]

— patent US20240115654A1, “INTRAVENOUS ADMINISTRATION OF ENGINEERED ANTIMICROBIAL AMPHIPHILIC PEPTIDES” (priority 2021, published 2024)
